{"source": "ChEMBL document CHEMBL3351515", "about": "“α-Hexylcinnamaldehyde inhibits the genotoxicity of environmental pollutants in the bacterial reverse mutation assay” (2014)", "key": {"Salmonella typhimurium [1]": {"tested_on": "Salmonella typhimurium", "assay": "Antimutagenic activity against sodium azide-induced revertant colonies in Salmonella typhimurium TA100 assessed as number of revertant colonies measured pretreatment at 900 uM (reference value: 1968 +/- 46.9) in absence of mammalian S9 fraction", "format": "functional, Salmonella enterica subsp. enterica serovar Typhimurium"}, "Salmonella typhimurium [2]": {"tested_on": "Salmonella typhimurium", "assay": "Antimutagenic activity against 2-aminoanthracene-induced revertant colonies in Salmonella typhimurium TA100 assessed as number of revertant colonies measured pretreatment at 90 uM (reference value: 481.3 +/- 5.3) in presence of mammalian S9 fraction", "format": "functional, Salmonella enterica subsp. enterica serovar Typhimurium"}, "Salmonella typhimurium [3]": {"tested_on": "Salmonella typhimurium", "assay": "Antimutagenic activity against 2-aminoanthracene-induced revertant colonies in Salmonella typhimurium TA100 assessed as number of revertant colonies measured pretreatment at 180 uM (reference value: 481.3 +/- 5.3) in presence of mammalian S9 fraction", "format": "functional, Salmonella enterica subsp. enterica serovar Typhimurium"}, "Salmonella typhimurium [4]": {"tested_on": "Salmonella typhimurium", "assay": "Antimutagenic activity against sodium azide-induced revertant colonies in Salmonella typhimurium TA100 assessed as number of revertant colonies measured cotreatment at 9 uM (reference value: 1588 +/- 55.6) in absence of mammalian S9 fraction", "format": "functional, Salmonella enterica subsp. enterica serovar Typhimurium"}, "Salmonella typhimurium [5]": {"tested_on": "Salmonella typhimurium", "assay": "Antimutagenic activity against sodium azide-induced revertant colonies in Salmonella typhimurium TA100 assessed as number of revertant colonies measured cotreatment at 180 uM (reference value: 1588 +/- 55.6) in absence of mammalian S9 fraction", "format": "functional, Salmonella enterica subsp. enterica serovar Typhimurium"}, "Salmonella typhimurium [6]": {"tested_on": "Salmonella typhimurium", "assay": "Antimutagenic activity against 2-aminoanthracene-induced revertant colonies in Salmonella typhimurium TA100 assessed as number of revertant colonies measured cotreatment at 18 uM (reference value: 457.9 +/- 16.74) in presence of mammalian S9 fraction", "format": "functional, Salmonella enterica subsp. enterica serovar Typhimurium"}, "Salmonella typhimurium [7]": {"tested_on": "Salmonella typhimurium", "assay": "Antimutagenic activity against 2-aminoanthracene-induced revertant colonies in Salmonella typhimurium TA100 assessed as number of revertant colonies measured cotreatment at 180 uM (reference value: 457.9 +/- 16.74) in presence of mammalian S9 fraction", "format": "functional, Salmonella enterica subsp. enterica serovar Typhimurium"}, "Salmonella typhimurium [8]": {"tested_on": "Salmonella typhimurium", "assay": "Antimutagenic activity against sodium azide-induced revertant colonies in Salmonella typhimurium TA100 assessed as number of revertant colonies measured post-treatment at 90 uM (reference value: 1909 +/- 29.7) in absence of mammalian S9 fraction", "format": "functional, Salmonella enterica subsp. enterica serovar Typhimurium"}, "Salmonella typhimurium [9]": {"tested_on": "Salmonella typhimurium", "assay": "Antimutagenic activity against 2-aminoanthracene-induced revertant colonies in Salmonella typhimurium TA100 assessed as number of revertant colonies measured post-treatment at 9 uM (reference value: 642.7 +/- 2.7) in presence of mammalian S9 fraction", "format": "functional, Salmonella enterica subsp. enterica serovar Typhimurium"}, "Salmonella typhimurium [10]": {"tested_on": "Salmonella typhimurium", "assay": "Antimutagenic activity against 2-aminoanthracene-induced revertant colonies in Salmonella typhimurium TA100 assessed as number of revertant colonies measured post-treatment at 18 uM (reference value: 642.7 +/- 2.7) in presence of mammalian S9 fraction", "format": "functional, Salmonella enterica subsp. enterica serovar Typhimurium"}, "Salmonella typhimurium [11]": {"tested_on": "Salmonella typhimurium", "assay": "Antimutagenic activity against 2-aminoanthracene-induced revertant colonies in Salmonella typhimurium TA100 assessed as number of revertant colonies measured post-treatment at 90 uM (reference value: 642.7 +/- 2.7) in presence of mammalian S9 fraction", "format": "functional, Salmonella enterica subsp. enterica serovar Typhimurium"}, "Escherichia coli [12]": {"tested_on": "Escherichia coli", "assay": "Antimutagenic activity against methyl methansulfonate-induced revertant colonies in Escherichia coli WP2uvrA assessed as number of revertant colonies measured pretreatment at 90 uM (reference value: 466.7 +/- 40.4) in absence of mammalian S9 fraction", "format": "functional"}, "Escherichia coli [13]": {"tested_on": "Escherichia coli", "assay": "Antimutagenic activity against methyl methansulfonate-induced revertant colonies in Escherichia coli WP2uvrA assessed as number of revertant colonies measured pretreatment at 180 uM (reference value: 466.7 +/- 40.4) in absence of mammalian S9 fraction", "format": "functional"}, "Escherichia coli [14]": {"tested_on": "Escherichia coli", "assay": "Antimutagenic activity against methyl methansulfonate-induced revertant colonies in Escherichia coli WP2uvrA assessed as number of revertant colonies measured pretreatment at 900 uM (reference value: 466.7 +/- 40.4) in absence of mammalian S9 fraction", "format": "functional"}, "Escherichia coli [15]": {"tested_on": "Escherichia coli", "assay": "Antimutagenic activity against 2-aminoanthracene-induced revertant colonies in Escherichia coli WP2uvrA assessed as number of revertant colonies measured pretreatment at 180 uM (reference value: 178.7 +/- 11.8) in presence of mammalian S9 fraction", "format": "functional"}, "Escherichia coli [16]": {"tested_on": "Escherichia coli", "assay": "Antimutagenic activity against methyl methansulfonate-induced revertant colonies in Escherichia coli WP2uvrA assessed as number of revertant colonies measured cotreatment at 90 uM (reference value: 485.3 +/- 17.5) in absence of mammalian S9 fraction", "format": "functional"}, "Escherichia coli [17]": {"tested_on": "Escherichia coli", "assay": "Antimutagenic activity against methyl methansulfonate-induced revertant colonies in Escherichia coli WP2uvrA assessed as number of revertant colonies measured post-treatment at 9 uM (reference value: 726.7 +/- 12.7) in absence of mammalian S9 fraction", "format": "functional"}, "Escherichia coli [18]": {"tested_on": "Escherichia coli", "assay": "Antimutagenic activity against methyl methansulfonate-induced revertant colonies in Escherichia coli WP2uvrA assessed as number of revertant colonies measured post-treatment at 90 uM (reference value: 726.7 +/- 12.7) in absence of mammalian S9 fraction", "format": "functional"}, "Escherichia coli [19]": {"tested_on": "Escherichia coli", "assay": "Antimutagenic activity against methyl methansulfonate-induced revertant colonies in Escherichia coli WP2uvrA assessed as number of revertant colonies measured post-treatment at 900 uM (reference value: 726.7 +/- 12.7) in absence of mammalian S9 fraction", "format": "functional"}, "Escherichia coli [20]": {"tested_on": "Escherichia coli", "assay": "Antimutagenic activity against 2-aminoanthracene-induced revertant colonies in Escherichia coli WP2uvrA assessed as number of revertant colonies measured post-treatment at 90 uM (reference value: 308 +/- 4) in presence of mammalian S9 fraction", "format": "functional"}, "Escherichia coli [21]": {"tested_on": "Escherichia coli", "assay": "Antimutagenic activity against 2-aminoanthracene-induced revertant colonies in Escherichia coli WP2uvrA assessed as number of revertant colonies measured post-treatment at 180 uM (reference value: 308 +/- 4) in presence of mammalian S9 fraction", "format": "functional"}, "Escherichia coli [22]": {"tested_on": "Escherichia coli", "assay": "Antimutagenic activity against 2-aminoanthracene-induced revertant colonies in Escherichia coli WP2uvrA assessed as number of revertant colonies measured post-treatment at 900 uM (reference value: 308 +/- 4) in presence of mammalian S9 fraction", "format": "functional"}, "Salmonella typhimurium [23]": {"tested_on": "Salmonella typhimurium", "assay": "Antimutagenic activity against 2-nitrofluorene-induced revertant colonies in Salmonella typhimurium TA98 assessed as inhibition of mutagenicity measured at 900 uM", "format": "functional, Salmonella enterica subsp. enterica serovar Typhimurium", "conditions": "Salmonella enterica"}, "Salmonella typhimurium [24]": {"tested_on": "Salmonella typhimurium", "assay": "Antimutagenic activity against 1-nitropyrene-induced revertant colonies in Salmonella typhimurium TA98 assessed as inhibition of mutagenicity measured at 9 to 18 uM", "format": "functional, Salmonella enterica subsp. enterica serovar Typhimurium"}, "Salmonella typhimurium [25]": {"tested_on": "Salmonella typhimurium", "assay": "Antimutagenic activity against 1-nitropyrene-induced revertant colonies in Salmonella typhimurium TA98 assessed as inhibition of mutagenicity measured at 90 to 180 uM", "format": "functional, Salmonella enterica subsp. enterica serovar Typhimurium"}, "Salmonella typhimurium [26]": {"tested_on": "Salmonella typhimurium", "assay": "Antimutagenic activity against 1,8-dinitropyrene-induced revertant colonies in Salmonella typhimurium TA98 assessed as inhibition of mutagenicity measured at 900 uM", "format": "functional, Salmonella enterica subsp. enterica serovar Typhimurium", "conditions": "Salmonella enterica"}, "Salmonella typhimurium [27]": {"tested_on": "Salmonella typhimurium", "assay": "Antimutagenic activity against 4-nitroquinoline N-oxide-induced revertant colonies in Salmonella typhimurium TA98 assessed as inhibition of mutagenicity measured at 9 to 18 uM", "format": "functional, Salmonella enterica subsp. enterica serovar Typhimurium"}, "Salmonella typhimurium [28]": {"tested_on": "Salmonella typhimurium", "assay": "Antimutagenic activity against 4-nitroquinoline N-oxide-induced revertant colonies in Salmonella typhimurium TA98 assessed as inhibition of mutagenicity measured at 90 to 180 uM", "format": "functional, Salmonella enterica subsp. enterica serovar Typhimurium"}, "Salmonella typhimurium [29]": {"tested_on": "Salmonella typhimurium", "assay": "Antimutagenic activity against 4-nitroquinoline N-oxide-induced revertant colonies in Salmonella typhimurium TA98 assessed as inhibition of mutagenicity measured at 900 uM", "format": "functional, Salmonella enterica subsp. enterica serovar Typhimurium", "conditions": "Salmonella enterica"}, "Salmonella typhimurium [30]": {"tested_on": "Salmonella typhimurium", "assay": "Antimutagenic activity against 1-nitropyrene-induced revertant colonies in Salmonella typhimurium TA98NR assessed as inhibition of mutagenicity measured at 900 uM", "format": "functional, Salmonella enterica subsp. enterica serovar Typhimurium", "conditions": "Salmonella enterica"}, "Salmonella typhimurium [31]": {"tested_on": "Salmonella typhimurium", "assay": "Antimutagenic activity against 1-nitropyrene-induced revertant colonies in Salmonella typhimurium TA98 1,8 DNP assessed as inhibition of mutagenicity measured at 90 to 180 uM", "format": "functional, Salmonella enterica subsp. enterica serovar Typhimurium"}}, "data": [{"smiles": "CCCCCC/C(C=O)=C\\c1ccccc1", "values": [{"measurement": "Activity", "setting": "Salmonella typhimurium [1]", "value": 1652}, {"measurement": "Activity", "setting": "Salmonella typhimurium [2]", "value": 454.7}, {"measurement": "Activity", "setting": "Salmonella typhimurium [3]", "value": 384}, {"measurement": "Activity", "setting": "Salmonella typhimurium [4]", "value": 1519}, {"measurement": "Activity", "setting": "Salmonella typhimurium [5]", "value": 1457}, {"measurement": "Activity", "setting": "Salmonella typhimurium [6]", "value": 446}, {"measurement": "Activity", "setting": "Salmonella typhimurium [7]", "value": 404}, {"measurement": "Activity", "setting": "Salmonella typhimurium [8]", "value": 1803}, {"measurement": "Activity", "setting": "Salmonella typhimurium [9]", "value": 637.3}, {"measurement": "Activity", "setting": "Salmonella typhimurium [10]", "value": 530.7}, {"measurement": "Activity", "setting": "Salmonella typhimurium [11]", "value": 530}, {"measurement": "Activity", "setting": "Escherichia coli [12]", "value": 436}, {"measurement": "Activity", "setting": "Escherichia coli [13]", "value": 376}, {"measurement": "Activity", "setting": "Escherichia coli [14]", "value": 365.3}, {"measurement": "Activity", "setting": "Escherichia coli [15]", "value": 147}, {"measurement": "Activity", "setting": "Escherichia coli [16]", "value": 466.7}, {"measurement": "Activity", "setting": "Escherichia coli [17]", "value": 528}, {"measurement": "Activity", "setting": "Escherichia coli [18]", "value": 517.3}, {"measurement": "Activity", "setting": "Escherichia coli [19]", "value": 474}, {"measurement": "Activity", "setting": "Escherichia coli [20]", "value": 308.7}, {"measurement": "Activity", "setting": "Escherichia coli [21]", "value": 302.7}, {"measurement": "Activity", "setting": "Escherichia coli [22]", "value": 304.3}, {"measurement": "inhibition at 900 µM", "setting": "Salmonella typhimurium [23]", "value": "> 40", "unit": "%"}, {"measurement": "inhibition (INH)", "setting": "Salmonella typhimurium [24]", "value": "<25", "unit": "%"}, {"measurement": "inhibition (INH)", "setting": "Salmonella typhimurium [25]", "value": 25, "unit": "%"}, {"measurement": "inhibition at 900 µM", "setting": "Salmonella typhimurium [26]", "value": "> 40", "unit": "%"}, {"measurement": "inhibition (INH)", "setting": "Salmonella typhimurium [27]", "value": "<25", "unit": "%"}, {"measurement": "inhibition (INH)", "setting": "Salmonella typhimurium [28]", "value": 25, "unit": "%"}, {"measurement": "inhibition at 900 µM", "setting": "Salmonella typhimurium [29]", "value": "> 40", "unit": "%"}, {"measurement": "inhibition at 900 µM", "setting": "Salmonella typhimurium [30]", "value": "> 40", "unit": "%"}, {"measurement": "inhibition (INH)", "setting": "Salmonella typhimurium [31]", "value": 25, "unit": "%"}]}]}
